# Read-outs that look alike come from different tables or passages of the source.
# How the values were obtained:
# [1] = system: HTLV-IIIB strain of HIV-1 (in C8166-45 cells); test: Syncytia (human T-cell culture) Assay; assay type: cell-based
# Method: Formation of syncytia is a feature of in vitro cultures of CD4+ T-cells infected with HIV-1. In this assay (1), T-cells are treated with a putative replication inhibiting compound and then infected with HIV-1. After incubation, the culture is checked for the formation of syncytia. The absence or reduction in the number of syncytia is used as a measure of the test compound's ability to inhibit HIV replication.
# The target cells, designated C8166-45, are a fusion of umbilical blood lymphocytes and T-cells from leukemia-lymphoma patients and are established at an initial density of 5×10^4 per 90 μl in RPMI 1640 (+10% fetal bovine serum) culture medium in 96 well flat bottom plates. A selected amount of test compound, dissolved in DMSO, is included. 50 TCID50 's (the dose that results in induced effect in 50% of test cultures) of the HTLV-IIIB strain of HIV-1 (3) are inoculated into each culture. Control cultures receive compound or virus only.
# The cultures are incubated for 72 hours (4), at 37° C. with 5% carbon dioxide, and then visually examined for the frequency and distribution of virus-induced giant cell syncytia. The percent inhibition by the test compound is determined by comparison with control values.
# C8166-45 cell line = test: MTT Assay (cytotoxicity); assay type: cell-based, human; details: C8166-45 cells, five days
# [2] = Human immunodeficiency virus 1, T-cell, C8166-45 cells, HTLV-IIIB strain, 72 hours, read-out: Syncytia Assay IC50
smiles,measurement,setting,value
"CCN1c2ncc(CCc3ccccc3)cc2C(=O)N(C)c2cccnc21 [Example 42, 5,11-Dihydro-11-ethyl-5methyl-8-(2-phenylethyl)-6H-dipyrido[3,2-b:2',3'-e][1,4]diazepin-6-one]",IC50,[1]; [2],0.03 µM
"CCN1c2ncc(COc3ccncc3)cc2C(=O)N(C)c2ccc(Cl)nc21 [Example 124, 2-Chloro-5,11-dihydro-11-ethyl-5-methyl-8-(pyrid-4-yloxy)methyl-6H-dipyrido[3,2-b:2',3'-e][1,4]diazepin-6-one]",IC50,[1]; [2],0.006 µM
same,MTT Assay CC30,C8166-45 cell line,> 120 µM
"CCN1c2ncc(COc3ccccc3)cc2C(=O)N(C)c2ccc(Cl)nc21 [Example 100, 2-chloro-5,11-dihydro-11-ethyl-5-methyl-8-(phenyloxy)methyl-6H-dipyrido[3,2-b:2',3'-e][1,4]diazepin-6-one]",IC50,[1]; [2],0.05 µM
same,MTT Assay CC30,C8166-45 cell line,> 60 µM
"CCN1c2ncc(CCOc3ccncc3)cc2C(=O)N(C)c2ccc(Cl)nc21 [Example 127, 2-chloro-5,11-dihydro-11-ethyl-5-methyl-8-[2-(pyrid-4-yloxy)ethyl]-6H-dipyrido[3,2-b:2',3'-e][1,4]diazepin-6-one]",IC50,[1]; [2],0.003 µM
same,MTT Assay CC30,C8166-45 cell line,55 µM
"CCN1c2ncc(COc3ccnc(C(F)(F)F)c3)cc2C(=O)N(C)c2ccc(Cl)nc21 [Example 126, 2-chloro-5,11-dihydro-11-ethyl-5-methyl-8-(2-trifluoromethylpyrid-4-yloxy)methyl-6H-dipyrido[3,2-b;2',3'-e][1,4]diazepin-6-one]",MTT Assay CC30,C8166-45 cell line,64 µM
"CN1C(=O)c2cc(CCc3ccncc3)cnc2N(C2CC2)c2nc(Cl)ccc21 [Example 37, 2Chloro-11-cyclopropyl-5,11-dihydro-5-methyl-8-[2-(pyrid-4-yl)ethyl]-6H-dipyrido[3,2-b:2',3'-e][1,4]diazepin-6-one]",MTT Assay CC30,C8166-45 cell line,> 60 µM
"CCN1c2ncc(COc3cccnc3)cc2C(=O)N(C)c2ccc(Cl)nc21 [Example 107, 2-chloro-5,11-dihydro-11-ethyl-5-methyl-8-(3-pyridyloxy)methyl-6H-dipyrido[3,2-b:2',3'-e][1,4]diazepin-6-one]",MTT Assay CC30,C8166-45 cell line,> 256 µM
"CCN1c2ncc(COc3cccc(N)c3)cc2C(=O)N(C)c2ccc(Cl)nc21 [Example 99, 8-(3-aminophenyloxy)methyl-2-chloro-5,11-dihydro-11-ethyl-5-methyl-6H-dipyrido[3,2-b:2',3'-e][1,4]diazepin-6-one]",IC50,"[1]; Human immunodeficiency virus 1, IIIB, T-cell, 72 h, read-out: Syncytia Assay IC50 (μM)",0.02 µM
"CCN1c2ncc(CCc3cc[n+]([O-])cc3)cc2C(=O)N(C)c2ccc(Cl)nc21 [Example 8, 2-Chloro-5,11-dihydro-11-ethyl-8-[2-(4-(N-oxopyridyl))ethyl]-5-methyl-6H-dipyrido[3,2-b:2',3'-e][1,4]diazepin-6-one]",MTT Assay CC30,C8166-45 cell line,> 256 µM
"CCN1c2ncc(COc3cccc(C(=O)O)c3)cc2C(=O)N(C)c2ccc(Cl)nc21 [Example 112, 2-chloro-5,11-dihydro-11-ethyl-8-(3-(carboxy)phenyloxy)methyl-5-methyl-6H-dipyrido[3,2-b:2',3'-e][1,4]diazepin-6-one]",MTT Assay CC30,C8166-45 cell line,250 µM
"CCN1c2ncc(CCOc3cc[n+]([O-])cc3)cc2C(=O)N(C)c2ccc(Cl)nc21 [Example 96, 2-chloro-5,11-dihydro-11-ethyl-5-methyl-8-[2-(N-oxo-pyrid-4-yloxy)ethyl]-6H-dipyrido[3,2-b:2',3'-e[]1,4]diazepin-6-one]",IC50,[1]; [2],0.03 µM
same,MTT Assay CC30,C8166-45 cell line,> 256 µM
CCN1c2ncc(COc3cccc([N+](=O)[O-])c3)cc2C(=O)N(C)c2ccc(Cl)nc21 [Example 98],MTT Assay CC30,C8166-45 cell line,> 60 µM
"CCN1c2ncc(CCc3ccnc(CO)c3)cc2C(=O)N(C)c2ccc(Cl)nc21 [Example 67, 2-Chloro-5,11-dihydro-11-ethyl-5-methyl-8-[2-(2-hydroxymethyl-4-pyridyl)ethyl]-6H -dipyrido[3,2-b:2',3'-e][1,4]diazepin-6-one]",MTT Assay CC30,C8166-45 cell line,128 µM
"CCN1c2ncc(CNc3cccc(N)c3)cc2C(=O)N(C)c2ccc(Cl)nc21 [Example 88, 8-(3-aminophenylamino)methyl-2-chloro-5,11-dihydro-11-ethyl-5-methyl-6H-dipyrido[3,2-b:2',3'-e][1,4]diazepin-6-one]",MTT Assay CC30,C8166-45 cell line,60 µM
"CCN1c2ncc(O)cc2C(=O)N(C)c2ccc(Cl)nc21 [Example 89, 2-chloro-5,11-dihydro-11-ethyl-8-hydroxy-5-methyl-6H-dipyrido[3,2-b:2',3'-e[]1,4]diazepin-6-one]",MTT Assay CC30,C8166-45 cell line,130 µM
"CCN1c2ncc(COc3ccc(F)cc3)cc2C(=O)N(C)c2ccc(Cl)nc21 [Example 103, 2-chloro-5,11-dihydro-11-ethyl-8-(4-fluorophenyloxy)methyl-5-methyl-6H-dipyrido[3,2-b:2',3'-e][1,4]diazepin-6-one]",MTT Assay CC30,C8166-45 cell line,> 60 µM
CCN1c2ncc(COc3cccc(C(=O)OC)c3)cc2C(=O)N(C)c2ccc(Cl)nc21 [Example 111],MTT Assay CC30,C8166-45 cell line,> 60 µM
"CCN1c2ncc(CSc3ccccc3)cc2C(=O)N(C)c2ccc(Cl)nc21 [Example 117, 2-chloro-5,11-dihydro-11-ethyl-5-methyl-8-(phenylthio)methyl-6H-dipyrido[3,2-b:2',3'-e][1,4]diazepin-6-one]",IC50,[1]; [2],0.005 µM
same,MTT Assay CC30,C8166-45 cell line,60 µM
"CCN1c2ncc(CSc3ncccn3)cc2C(=O)N(C)c2ccc(Cl)nc21 [Example 121, 2-chloro-5,11-dihydro-11-ethyl-5-methyl-8-(pyrimidinyl-2-thio)methyl-6H-dipyrido[3,2-b:2',3'-e][1,4]diazepin-6-one]",MTT Assay CC30,C8166-45 cell line,50 µM
"CCN1c2ncc(CCc3ccccc3)cc2C(=O)N(C)c2ccc(Cl)nc21 [Example 45, 2Chloro-5,11-dihydro-11-ethyl-5-methyl-8-(2-phenylethyl)-6H-dipyrido[3,2-b:2',3'-e][1,4]diazepin-6-one]",IC50,[1]; [2],0.01 µM
same,MTT Assay CC30,C8166-45 cell line,> 60 µM
"CCN1c2ncc(CS(=O)(=O)c3ccccc3)cc2C(=O)N(C)c2ccc(Cl)nc21 [Example 118, 2-chloro-5,11-dihydro-11-ethyl-5-methyl-8-(phenylsulfonyl)methyl-6H-dipyrido[3,2-b:2',3'e][1,4]diazepin-6-one]",MTT Assay CC30,C8166-45 cell line,45 µM
"CCN1c2ncc(OCc3ccccc3)cc2C(=O)N(C)c2ccc(Cl)nc21 [Example 90, 2-chloro-5,11-dihydro-11-ethyl-5-methyl-8-phenylmethoxy-6H-dipyrido[3,2-b:2',3'-e][1,4]diazepin-6-one]",MTT Assay CC30,C8166-45 cell line,> 60 µM
"CCN1c2ncc(COc3cc[n+]([O-])c(C(F)(F)F)c3)cc2C(=O)N(C)c2ccc(Cl)nc21 [Example 95, 2-chloro-5,11-dihydro-11-ethyl-5-methyl-8-(N-oxo-2-trifluoromethylpyrid-4-yloxy)methyl-6H-dipyrido[3,2-b:2',3'-e][1,4]diazepin-6-one]",MTT Assay CC30,C8166-45 cell line,100 µM
"CCN1c2ncc(CCO)cc2C(=O)N(C)c2ccc(Cl)nc21 [Example 85, 2-chloro-5,11-dihydro-11-ethyl-8-(β-hydroxy)ethyl-5-methyl-6H-dipyrido[3,2-b:2',3'-e][1,4]diazepin-6-one]",MTT Assay CC30,C8166-45 cell line,> 256 µM
"CCN1c2ncc(CCc3ccccc3)cc2C(=O)Nc2c(C)ccnc21 [Example 76, 5,11-Dihydro-11-ethyl-4-methyl-8-(2-phenylethyl)-6H-dipyrido[3,2-b:2',3'-e][1,4]diazepin-6-one]",MTT Assay CC30,C8166-45 cell line,> 130 µM
"CCN1c2ncc(CNc3ccccc3)cc2C(=O)N(C)c2ccc(Cl)nc21 [Example 87, 2-chloro-5,11-dihydro-11-ethyl-5-methyl-8-(phenylamino)methyl-6H-dipyrido[3,2-b:2',3'-e][1,4]diazepin-6-one]",MTT Assay CC30,C8166-45 cell line,> 60 µM
"CCN1c2ncc(CCc3cccc(NC(N)=O)c3)cc2C(=O)N(C)c2ccc(Cl)nc21 [Example 26, 2Chloro-5,11-dihydro-11-ethyl-5-methyl-8-2-[(3-ureidophenyl)ethyl]-6H-dipyrido[3,2-b:2',3'-e][1,4]diazepin-6-one]",MTT Assay CC30,C8166-45 cell line,35 µM

# — US5705499A, “8-arylalkyl- and 8-arylheteroalkyl-5,11-dihydro-6H-dipyrido[3,2-B:2',3'-e][1]diazepines and their use in the treatment of HIV-1 infection” (Boehringer Ingelheim Pharmaceuticals, Inc., priority 1996, dated 1998)
